According to patent publication US10150760B2, “Compounds for use in preparing heterocyclic triazole agonists of the APJ receptor” (AMGEN INC., priority 2016, dated 2018):

Target: human APJ receptor (Homo sapiens (Human), UniProt P35414)
Experiment: [35S]GTPγS binding assay on membranes from CHO cells stably expressing human APJ receptor
Assay type: biochemical
Details: read-out: Activity hAPJ SPA EC50 IP
Outline: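 Agonist-driven [35S]GTPγS (0.2 nM) binding was measured over 90 min at room temperature on human APJ-expressing CHO membranes with bead capture, in buffer containing 3 μM GDP, 200 mM NaCl and 5 mM MgCl2 (pH 7.5). Excess unlabelled GTPγS (100 μM) gave nonspecific signal; EC50 from non-linear fits.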

Sequence of human APJ receptor (P35414 whole entry): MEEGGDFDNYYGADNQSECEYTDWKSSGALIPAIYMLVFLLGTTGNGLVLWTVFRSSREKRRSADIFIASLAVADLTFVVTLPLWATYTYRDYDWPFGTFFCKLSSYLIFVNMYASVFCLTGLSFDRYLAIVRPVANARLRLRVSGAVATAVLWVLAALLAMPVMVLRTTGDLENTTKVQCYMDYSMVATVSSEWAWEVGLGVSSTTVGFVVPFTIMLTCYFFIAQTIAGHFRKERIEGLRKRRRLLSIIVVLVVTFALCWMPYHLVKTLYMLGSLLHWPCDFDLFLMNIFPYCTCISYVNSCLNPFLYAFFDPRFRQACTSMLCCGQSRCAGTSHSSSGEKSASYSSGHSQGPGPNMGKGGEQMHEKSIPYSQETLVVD

Substance	EC50 [nM]
(1S,2S)-1-(5-chloro-2-pyrimidinyl)-N-(4-cyclopropyl-5-((2S,5S)-5-methyltetrahydro-2-furanyl)-4H-1,2,4-triazol-3-yl)-1-(2-propanyloxy)-2-propanesulfonamide or (1S,2S)-1-(5-chloro-2-pyrimidinyl)-N-(4-cyclopropyl-5-((2R,5R)-5-methyltetrahydro-2-furanyl)-4H-1,2,4-triazol-3-yl)-1-(2-propanyloxy)-2-propanesulfonamide [Example 353.0]	100
(1S,2S)-1-(5-chloropyrimidin-2-yl)-1-isopropoxy-N-(4-(1-(methoxymethyl)cyclopropyl)-5-((R)-tetrahydrofuran-3-yl)-4H-1,2,4-triazol-3-yl)propane-2-sulfonamide or (1S,2S)-1-(5-chloropyrimidin-2-yl)-1-isopropoxy-N-(4-(1-(methoxymethyl)cyclopropyl)-5-((S)-tetrahydrofuran-3-yl)-4H-1,2,4-triazol-3-yl)propane-2-sulfonamide [Example 319.0]	130
(1S,2S)-1-(5-chloropyrimidin-2-yl)-1-isopropoxy-N-(4-(1-(methoxymethyl)cyclopropyl)-5-((R)-tetrahydrofuran-3-yl)-4H-1,2,4-triazol-3-yl)propane-2-sulfonamide or (1S,2S)-1-(5-chloropyrimidin-2-yl)-1-isopropoxy-N-(4-(1-(methoxymethyl)cyclopropyl)-5-((S)-tetrahydrofuran-3-yl)-4H-1,2,4-triazol-3-yl)propane-2-sulfonamide [Example 320.0]	45
(1S,2S)-1-isopropoxy-1-(5-methylpyrazin-2-yl)-N-(4-(tetrahydro-2H-pyran-4-yl)-5-((R)-tetrahydrofuran-2-yl)-4H-1,2,4-triazol-3-yl)propane-2-sulfonamide or (1S,2S)-1-isopropoxy-1-(5-methylpyrazin-2-yl)-N-(4-(tetrahydro-2H-pyran-4-yl)-5-((S)-tetrahydrofuran-2-yl)-4H-1,2,4-triazol-3-yl)propane-2-sulfonamide [Example 260.0]	> 4200
(1S,2S)-1-isopropoxy-1-(5-methylpyrazin-2-yl)-N-(4-(tetrahydro-2H-pyran-4-yl)-5-((R)-tetrahydrofuran-2-yl)-4H-1,2,4-triazol-3-yl)propane-2-sulfonamide or (1S,2S)-1-isopropoxy-1-(5-methylpyrazin-2-yl)-N-(4-(tetrahydro-2H-pyran-4-yl)-5-((S)-tetrahydrofuran-2-yl)-4H-1,2,4-triazol-3-yl)propane-2-sulfonamide [Example 261.0]	150
(1S,2S)-1-isopropoxy-1-(5-methylpyrazin-2-yl)-N-(5-((2S,5S)-5-methyltetrahydrofuran-2-yl)-4-(tetrahydro-2H-pyran-4-yl)-4H-1,2,4-triazol-3-yl)propane-2-sulfonamide or (1S,2S)-1-isopropoxy-1-(5-methylpyrazin-2-yl)-N-(5-((2R,5R)-5-methyltetrahydrofuran-2-yl)-4-(tetrahydro-2H-pyran-4-yl)-4H-1,2,4-triazol-3-yl)propane-2-sulfonamide [Example 262.0]	> 4200
(1S,2S)-1-isopropoxy-1-(5-methylpyrazin-2-yl)-N-(5-((2S,5S)-5-methyltetrahydrofuran-2-yl)-4-(tetrahydro-2H-pyran-4-yl)-4H-1,2,4-triazol-3-yl)propane-2-sulfonamide or (1S,2S)-1-isopropoxy-1-(5-methylpyrazin-2-yl)-N-(5-((2R,5R)-5-methyltetrahydrofuran-2-yl)-4-(tetrahydro-2H-pyran-4-yl)-4H-1,2,4-triazol-3-yl)propane-2-sulfonamide [Example 263.0]	460
(1S,2S)-N-(4-(1,3-dimethoxy-2-propanyl)-5-((2R,5R)-5-methyltetrahydro-2-furanyl)-4H-1,2,4-triazol-3-yl)-1-(5-fluoro-2-pyrimidinyl)-1-(2-propanyloxy)-2-propanesulfonamide or (1S,2S)-N-(4-(1,3-dimethoxy-2-propanyl)-5-((2S,5S)-5-methyltetrahydro-2-furanyl)-4H-1,2,4-triazol-3-yl)-1-(5-fluoro-2-pyrimidinyl)-1-(2-propanyloxy)-2-propanesulfonamide [Example 360.0]	310
(1S,2S)-N-(4-(1,3-dimethoxy-2-propanyl)-5-((2R,5R)-5-methyltetrahydro-2-furanyl)-4H-1,2,4-triazol-3-yl)-1-(5-fluoro-2-pyrimidinyl)-1-(2-propanyloxy)-2-propanesulfonamide or (1S,2S)-N-(4-(1,3-dimethoxy-2-propanyl)-5-((2S,5S)-5-methyltetrahydro-2-furanyl)-4H-1,2,4-triazol-3-yl)-1-(5-fluoro-2-pyrimidinyl)-1-(2-propanyloxy)-2-propanesulfonamide [Example 361.0]	10
(1S,2S)-N-(4-(1,3-dimethoxy-2-propanyl)-5-((2R,5R)-5-methyltetrahydro-2-furanyl)-4H-1,2,4-triazol-3-yl)-1-(5-methoxy-2-pyrimidinyl)-1-(2-propanyloxy)-2-propanesulfonamide or (1S,2S)-N-(4-(1,3-dimethoxy-2-propanyl)-5-((2S,5S)-5-methyltetrahydro-2-furanyl)-4H-1,2,4-triazol-3-yl)-1-(5-methoxy-2-pyrimidinyl)-1-(2-propanyloxy)-2-propanesulfonamide [Example 362.0]	390
(1S,2S)-N-(4-(1,3-dimethoxy-2-propanyl)-5-((2R,5R)-5-methyltetrahydro-2-furanyl)-4H-1,2,4-triazol-3-yl)-1-(5-methoxy-2-pyrimidinyl)-1-(2-propanyloxy)-2-propanesulfonamide or (1S,2S)-N-(4-(1,3-dimethoxy-2-propanyl)-5-((2S,5S)-5-methyltetrahydro-2-furanyl)-4H-1,2,4-triazol-3-yl)-1-(5-methoxy-2-pyrimidinyl)-1-(2-propanyloxy)-2-propanesulfonamide [Example 363.0]	28
(1S,2S)-N-(4-(1,3-dimethoxy-2-propanyl)-5-((2R,5R)-5-methyltetrahydro-2-furanyl)-4H-1,2,4-triazol-3-yl)-1-(5-methyl-2-pyrazinyl)-1-(2-propanyloxy)-2-propanesulfonamide or (1S,2S)-N-(4-(1,3-dimethoxy-2-propanyl)-5-((2S,5S)-5-methyltetrahydro-2-furanyl)-4H-1,2,4-triazol-3-yl)-1-(5-methyl-2-pyrazinyl)-1-(2-propanyloxy)-2-propanesulfonamide [Example 364.0]	69
(1S,2S)-N-(4-(1,3-dimethoxy-2-propanyl)-5-((2R,5R)-5-methyltetrahydro-2-furanyl)-4H-1,2,4-triazol-3-yl)-1-(5-methyl-2-pyrazinyl)-1-(2-propanyloxy)-2-propanesulfonamide or (1S,2S)-N-(4-(1,3-dimethoxy-2-propanyl)-5-((2S,5S)-5-methyltetrahydro-2-furanyl)-4H-1,2,4-triazol-3-yl)-1-(5-methyl-2-pyrazinyl)-1-(2-propanyloxy)-2-propanesulfonamide [Example 365.0]	72
(1S,2S)-N-(4-(1,3-dimethoxy-2-propanyl)-5-((2R,5R)-5-methyltetrahydro-2-furanyl)-4H-1,2,4-triazol-3-yl)-1-(5-methyl-2-pyridinyl)-1-(2-propanyloxy)-2-propanesulfonamide or (1S,2S)-N-(4-(1,3-dimethoxy-2-propanyl)-5-((2S,5S)-5-methyltetrahydro-2-furanyl)-4H-1,2,4-triazol-3-yl)-1-(5-methyl-2-pyridinyl)-1-(2-propanyloxy)-2-propanesulfonamide [Example 366.0]	680
(1S,2S)-N-(4-(1,3-dimethoxy-2-propanyl)-5-((2R,5R)-5-methyltetrahydro-2-furanyl)-4H-1,2,4-triazol-3-yl)-1-(5-methyl-2-pyridinyl)-1-(2-propanyloxy)-2-propanesulfonamide or (1S,2S)-N-(4-(1,3-dimethoxy-2-propanyl)-5-((2S,5S)-5-methyltetrahydro-2-furanyl)-4H-1,2,4-triazol-3-yl)-1-(5-methyl-2-pyridinyl)-1-(2-propanyloxy)-2-propanesulfonamide [Example 367.0]	12
(1S,2S)-N-(4-(1,3-dimethoxy-2-propanyl)-5-((2R,5R)-5-methyltetrahydro-2-furanyl)-4H-1,2,4-triazol-3-yl)-1-(5-methyl-2-pyrimidinyl)-1-(2-propanyloxy)-2-propanesulfonamide or (1S,2S)-N-(4-(1,3-dimethoxy-2-propanyl)-5-((2S,5S)-5-methyltetrahydro-2-furanyl)-4H-1,2,4-triazol-3-yl)-1-(5-methyl-2-pyrimidinyl)-1-(2-propanyloxy)-2-propanesulfonamide [Example 358.0]	430
(1S,2S)-N-(4-(1,3-dimethoxy-2-propanyl)-5-((2R,5R)-5-methyltetrahydro-2-furanyl)-4H-1,2,4-triazol-3-yl)-1-(5-methyl-2-pyrimidinyl)-1-(2-propanyloxy)-2-propanesulfonamide or (1S,2S)-N-(4-(1,3-dimethoxy-2-propanyl)-5-((2S,5S)-5-methyltetrahydro-2-furanyl)-4H-1,2,4-triazol-3-yl)-1-(5-methyl-2-pyrimidinyl)-1-(2-propanyloxy)-2-propanesulfonamide [Example 359.0]	11
(1S,2S)-N-(4-(2,6-dimethoxyphenyl)-5-((3R)-tetrahydro-3-furanyl)-4H-1,2,4-triazol-3-yl)-1-(5-methyl-2-pyridinyl)-1-(2-propanyloxy)-2-propanesulfonamide or (1S,2S)-N-(4-(2,6-dimethoxyphenyl)-5-((3S)-tetrahydro-3-furanyl)-4H-1,2,4-triazol-3-yl)-1-(5-methyl-2-pyridinyl)-1-(2-propanyloxy)-2-propanesulfonamide [Example 407.0]	10
